The values below come from publication PMC6362252, “A cell-free platform for the prenylation of natural products and application to cannabinoid production” (Nature Communications, 2019).

One test deals with NphB (Streptomyces sp. CL190, UniProt Q4R2T2, A232S/Y288A). As to conditions: M30; otherwise same.
The target of test [1] is T1, cannabidiolic acid synthase (CBDAS); CBDA synthase (Cannabis sativa, UniProt A6P6V9).
T1 construct: native signal peptide removed, starts at residue 28 (NPREN...), pPICZalpha, secreted by Pichia pastoris X33, concentrated culture medium (not purified)
As to the kind of experiment: HPLC of product CBDA. The format is biochemical. To be noted: concentrated expression medium, 25 µM FAD, 5 mM MgCl2, 5 mM KCl, 50 mM Hepes pH 7.0, 30 °C, nonane overlay.

As to `CCCCCc1cc(O)cc(O)c1C(=O)O` [olivetolic acid], the Km on NphB is 200 ± 40 µM.

Regarding `CCCCCc1cc(O)c(C/C=C(\C)CCC=C(C)C)c(O)c1C(=O)O` [cannabigerolic acid], the “HPLC of product CBDA” value in test [1] was “we employed CBDA synthase to convert CBGA into CBDA and CBGVA into CBDVA”.
